# System: hair shedding
# Assay: Example 5: hair shedding, hairs removed with brush after 10% phenylephrine or placebo
# Format: in vivo, human
# Details: average of 15 patients; versus placebo
# Excerpt: Patients: Fifteen female subjects, ages 18-40, were included in the study. Subjects were recruited based on telogen effluvium diagnosis. Subjects with uncontrolled hypertension, that were pregnant or breastfeeding, had been diagnosed with pattern hair loss or with other hair loss in conjunction with female pattern hair loss were excluded from the study.
# Hair Shedding: To measure hair shedding, a 4-day protocol was designed. On the first day patients were instructed to wash their hair and use styling products and procedures as they normally would. On the second day, patients were instructed not to wash their hair and to apply 0.5 mL of a placebo solution, containing a vehicle only, on the frontal area of the scalp in an 8×10 cm2 target area. Patients were instructed to wait 45 minutes, after which, they brushed their hair 20 times from the front of the scalp to the bottom of head using a new brush. After the procedure, the brushes were sealed in a plastic bag. On day three, patients were instructed to wash their hair and use styling products and procedures as they normally would. […] After each clinical procedure, the investigator counted the hairs collected on each brush. A new brush was used for each procedure.
compound,measurement,value
CNC[C@H](O)c1cccc(O)c1 [phenylephrine],Average reduction in hair loss,approximately 42%

# — patent US20260191803A1, “SYSTEM AND METHOD FOR THE TREATMENT OF TELOGEN EFFLUVIUM AND CHEMOTHERAPY INDUCED ALOPECIA” (Follea International, priority 2025, published 2026)
